Among the data in patent EP0114002B1, “Benzothiopyrano(4,3,2,-cd)indazoles, their pharmaceutical compositions and methods for their production” (WARNER-LAMBERT COMPANY, priority 1983, dated 1984) are response vs control in vivo, zone of inhibition and IC50 values, retold here.

The test system of assay [1] is lymphocytic leukemia P388. Description: in vivo lymphocytic leukemia P388 test. Conditions: Mus musculus, P388, ip, 120 h, read-out: P388 in vivo T/C × 100; for response vs control in vivo at 12.5 mg/kg: Dose 12.50 mg/kg intraperitoneally once daily for five days; for response vs control in vivo at 25 mg/kg: Dose 25.00 mg/kg intraperitoneally once daily for five days; for response vs control in vivo at 50 mg/kg: Dose 50.00 mg/kg intraperitoneally once daily for five days. Set-up: species or system mice. The protocol:
Another test protocol is the in vivo lymphocytic leukemia P388 test. The animals used are either male or female CD2F, mice. There are six or seven animals per test group. The tumor transplant is by intraperitoneal injection of dilute ascitic fluid containing cells of lymphocytic leukemia P388. The test compounds are administered intraperitoneally once daily for five consecutive days at various doses following tumor inoculation. The animals are weighed and survivors are recorded on a regular basis for 30 days. A compound is designated "toxic" if, at a given dose, all animals died prior to four days after the first injection of drug. A ratio of survival time for treated (T)/control (C) animals is calculated. A criterion for efficacy is a ratio T/C times 100 greater than or equal to 125. See Cancer Chemotherapy Reports, Part 3, 3; 1 (1972) for a comprehensive discussion of the protocol.

For assay [2], the system named is Aerobacter aerogenes 0126. Briefly: in vitro antibacterial/antifungal (ABF) agar-disk diffusion test. The assay is classed as cell-based. The following applies: Klebsiella aerogenes, read-out: ABF Zone Diameter (cont. in mg/ml) A. Aero-genes; for zone of inhibition at 3000 µg/mL: 3 mg/ml; for zone of inhibition at 500 µg/mL: 0.5 mg/ml. How it is done: (§1) Still another test protocol is the in vitro antibacterial/antifungal (ABF) test. Compounds are tested for antimicrobial activity in an agar-disk diffusion assay, a standard microbiological technique for testing antibiotics'. After incubation of each culture with a test compound, a zone of inhibition is determined. The zone diameter (mm) of active compounds ranges from a minimum of 13.5 mm to as high as 60 mm, with a greater diameter reflecting higher activity. For convenience, values are reported for two gram-negative bacteria (Aerobacter aerogenes 0126 and Escherichia coli 04863), two gram-positive bacteria (Bacillus subtilis 04555 and Streptococcus faecalis 05045 utilizing AM-09 medium), and one mycelial fungus (Penicillium avellaneum M2988).
On the technique in general: In agar diffusion tests the substance spreads into inoculated agar from a disc or well.

Assay [3] has as its system Penicillium avellaneum M2988. The description is as above. The assay is classed as cell-based. Conditions: Hamigera avellanea, read-out: ABF Zone Diameter (cont. in mg/ml) P. Avell-aneum; for zone of inhibition at 3000 µg/mL: 3 mg/ml. How it is done: as §1
Another assay deals with Bacillus subtilis 04555. The description is as above. The assay is classed as cell-based. The following applies: read-out: ABF Zone Diameter (cont. in mg/ml) B. Sub-tilis; for zone of inhibition at 3000 µg/mL: 3 mg/ml; for zone of inhibition at 1000 µg/mL: 1 mg/ml; for zone of inhibition at 100 µg/mL: 0.1 mg/ml. How it is done: as §1
For assay [4], the system named is Streptococcus faecalis 05045. Described as above. The assay is classed as cell-based. Conditions: Enterococcus faecalis, AM-09 medium, read-out: ABF Zone Diameter (cont. in mg/ml) S. Fae-calis; for zone of inhibition at 3000 µg/mL: 3 mg/ml; for zone of inhibition at 1000 µg/mL: 1 mg/ml. How it is done: as §1
The next assay deals with Escherichia coli 04863. Described as above. The assay is classed as cell-based. Conditions: read-out: ABF Zone Diameter (cont. in mg/ml) E. Coli; for zone of inhibition at 3000 µg/mL: 3 mg/ml; for zone of inhibition at 100 µg/mL: 0.1 mg/ml. How it is done:
as §1

The subject of another assay is HCT-8 cells. Description: in vitro proliferating human colon adenocarcinoma (HCA) cell screen. The assay is classed as cell-based. How it is done:
One test protocol is the in vitro proliferating human colon adenocarcinoma (HCA) cell screen. In this test, HCT-8 cells (HCA cell line received from Yale University) are trypsinized using trypsin-EDTA. A single cell suspension is achieved by passing the cells through a 26 gauge needle with a 20 cc syringe. A cell suspension is prepared using RPMI 1640 + 10% FCS + 50) g/ml gentamicin sulfate with a cell concentration of approximately 30,000 cells/ml. The cell suspension is dispensed in Linbro 24-well plates; 1 ml/well. The plates are incubated for approximately 48 hours at 37°C in a 5% C02 atmosphere. At this time test compounds are added in the appropriate concentration. Five µl of the 200 µg/ml stock solution is added to each well in primary test. Ten µl of the appropirate dilution is added to each well for a titration test. The plates are re-incubated an additional 60 to 65 hours at 37°C in a 5% C02 atmosphere. The cells are lysed using a mix of cationic surfactant, glacial acetic acid, and sodium chloride. Two ml of the lysed cell suspension from each well is added to 8 ml of diluent. The number of nuclei is determined using a Coulter counter (ZBI model), and a percent growth for each drug concentration is calculated. From this, an ID50 molar concentration of a compound (that results in 50% inhibition of growth) is determined.

A further assay concerns L1210 cells. Description: L1210 murine leukemia cell growth inhibition in vitro. The assay is classed as cell-based. Conditions: Mus musculus, 72 h. The protocol: Another test protocol uses L1210 cells, a murine leukemia cell line, grown in RPMI 1640 supplemented with 5% fetal bovine serum and gentamicin ([…]). Drug dilutions are prepared in the appropriate solvent and 20 µl of each dilution are added to 24-well Linbro tissue culture plates, followed by the addition of 2.0 ml of cell suspension containing 3 x 10^4 cells per ml. Solvent and medium controls are included in each test. After incubation at 37°C forthree days in 5% C02, the contents of each well are removed and the cells counted in a ZBI Coulter counter. Percent growth are calculated relative to the controls and the levels of drug activity are expressed as ID50 in moles per liter.

Setting [5] is: Table 2, 60 to 65 hours with compound, read-out: HCA—3 in vitro IC50.
Where [6] appears, read: Table 2, three days incubation, read-out: L1210 in vitro IC50.
The mark [7] stands for this setting: Table 1, 60 to 65 hours with compound, 50% inhibition of growth, read-out: HCA—3 in vitro ID50.
The mark [8] stands for this setting: Table 1, three days incubation, 50% inhibition of growth, read-out: L1210 in vitro ID50.

Where two headings read alike, the source gives them in different places.

As to `CCN(CC)CCn1nc2c3c(c(NCCNCCO)ccc31)Sc1c(O)ccc(O)c1-2` [2-[2-(Diethylamino)ethyl]-5-[[2-[(2-hydroxyethyl)amino]ethyl]amino]-2H[1]benzothiopyrano[4,3,2-cdlindazole-7,10-diol], the response vs control in vivo at 6.25 mg/kg in assay [1] (Dose 6.25 mg/kg intraperitoneally once daily for five days) was found to be 123%. Also, the response vs control in vivo at 12.5 mg/kg in assay [1] stood at 118%. The response vs control in vivo at 25 mg/kg in assay [1] came to 121%. Besides, in assay [1], the response vs control in vivo at 50 mg/kg was found to be 138%. The zone of inhibition at 3000 µg/mL was determined as 14 mm in assay [2], 0 mm in assay [3], 0 mm in the assay on Bacillus subtilis 04555 and 0 mm in the assay with Escherichia coli 04863. For the same compound, the zone of inhibition at 500 µg/mL in assay [4] (0.5 mg/ml) was found to be 15 mm. For the same compound, the IC50 with HCT-8 cells (setting [5]) and with L1210 cells (setting [6]) was more than 1500 nM in each case.

In the case of `CN(C)CCCn1nc2c3c(c(N)ccc31)Sc1ccccc1-2` [CH2CH2CH2N(CH3)2 / NH2], in assay [1], the response vs control in vivo at 50 mg/kg was determined as 121%. In addition, the response vs control in vivo at 100 mg/kg in assay [1] (Dose 100.00 mg/kg intraperitoneally once daily for five days) turned out to be 182%. In addition, in assay [1] (Dose 200.00 mg/kg intraperitoneally once daily for five days, survival time treated/control), the response vs control in vivo at 200 mg/kg was 169%. Moreover, the zone of inhibition at 500 µg/mL in assay [2] is 16 mm. Moreover, the zone of inhibition at 3000 µg/mL in assay [3] was determined as 16 mm; in the assay with Bacillus subtilis 04555, 0 mm; in assay [4], 15 mm; in the assay with Escherichia coli 04863, 15 mm. Besides, the IC50 is 1800 nM in the assay with HCT-8 cells (setting [7]) and 2000 nM in the assay on L1210 cells (setting [8]).

With `CCN(CC)CCn1nc2c3c(c(N=CN(C)C)ccc31)Sc1ccccc1-2` [CH2CH2N(C2H5)2 / N=CHN(CH3)2, N'-[2-(2-(Diethylamino)ethyl]-2H[1]benzothiopyrano[4,3,2-cd]indazol-5-yl]-N,N-dimethyl-methanimidamide], the response vs control in vivo at 25 mg/kg in assay [1] amounted to 145%. Besides, in assay [1], the response vs control in vivo at 50 mg/kg stood at 206%. Besides, the zone of inhibition at 3000 µg/mL worked out at 0 mm in assay [2], 16 mm in assay [3], 0 mm in assay [4] and 0 mm in the assay with Escherichia coli 04863. The zone of inhibition at 1000 µg/mL in the assay with Bacillus subtilis 04555 came to 16 mm. In addition, the IC50 with HCT-8 cells (setting [7]) turned out to be 240 nM; in the assay on L1210 cells (setting [8]), 100 nM.

Turning to `CCN(CC)CCn1nc2c3c(c(N)ccc31)Sc1c(O)ccc(O)c1-2` [CH2CH2N(C2H5)2 / NH2 / 7,10-(OH)2, 5-amino-2-[2-(diethylamino)ethyl]-2H[1]-benzothiopyrano[4;3,2-cd]indazole-7,10-diol], the zone of inhibition at 3000 µg/mL in assay [2] was 0 mm; in assay [3] it was 0 mm; in the assay with Bacillus subtilis 04555, 0 mm; in assay [4], 19 mm; in the assay on Escherichia coli 04863, 0 mm. Besides, the IC50 with HCT-8 cells (setting [5]) and in the assay with L1210 cells (setting [6]) was more than 2200 nM throughout.

For `CCN(CC)CCn1nc2c3c(c(N)ccc31)Sc1ccccc1-2` [CH2CH2N(C2H5)2 / NH2, 5-Amino-N,N-diethyl-2H[1]benzothiopyrano[4,3,2-cd]indazole-2-ethanamine], in assay [1], the response vs control in vivo at 12.5 mg/kg was determined as 144%. Besides, the response vs control in vivo at 25 mg/kg in assay [1] worked out at 162%. In addition, the zone of inhibition at 3000 µg/mL (in assay [2]; in the assay on Bacillus subtilis 04555; in the assay with Escherichia coli 04863) was 0 mm in each case. Besides, the zone of inhibition at 1000 µg/mL in assay [3] (1 mg/ml) and in assay [4] was 14 mm throughout. Further, the IC50 came to 1100 nM in the assay on HCT-8 cells (setting [7]) and 130 nM in the assay on L1210 cells (setting [8]).

Consider `CCN(CC)CCNc1ccc2c3c(nn2CCN(CC)CC)-c2ccccc2Sc13` [CH2CH2N(C2H5)2 / NHCH2CH2N(C2H5)2, 5-[[2-(Diethylamino)ethyl]amino]-N,N-diethyl-2H[1]-benzothiopyrano[4,3,2-cd]indazofe-2-ethanamine], for which, in assay [1], the response vs control in vivo at 25 mg/kg worked out at 155%. Also, the zone of inhibition at 500 µg/mL in assay [2] worked out at 14 mm. Besides, the values for the zone of inhibition at 3000 µg/mL in assay [3] and in assay [4] were 17 mm and 15 mm, respectively. The zone of inhibition at 100 µg/mL came to 15 mm with Bacillus subtilis 04555 and 18 mm with Escherichia coli 04863. In addition, the IC50 with HCT-8 cells (setting [7]) was 450 nM; in the assay on L1210 cells (setting [8]), 140 nM.

For `NCCn1nc2c3c(c(NCCNCCO)ccc31)Sc1ccccc1-2` [CH2CH2NH2 / NHCH2NHCH2CH2OH, 2-[[2-[[2-(2-aminoethyl)-2H[1]benzothiopyrano[4,3,2-cd]indazol-5-yl]amino]ethyl]amino]ethanol], the zone of inhibition at 500 µg/mL (in assay [2]; in the assay on Bacillus subtilis 04555 (0.5 mg/ml)) was 15 mm in each case. Moreover, the zone of inhibition at 3000 µg/mL (in assay [3]; in assay [4]; in the assay on Escherichia coli 04863) was 0 mm in each case. Moreover, the results for the IC50 in the assay on HCT-8 cells (setting [7]) and with L1210 cells (setting [8]) were 88 nM and 24 nM, respectively.

Consider `NCCn1nc2c3c(c([N+](=O)[O-])ccc31)Sc1ccccc1-2` [CH2CH2NH2 / NO2 / 199—203, 5-Nitro-2H[1]benzothiopyrano[4,3,2-cd]indazole-2-ethanamine], for which the zone of inhibition at 100 µg/mL stood at 18 mm in assay [2] (0.1 mg/ml), 17 mm in the assay on Bacillus subtilis 04555 and 15 mm in the assay with Escherichia coli 04863. Besides, the zone of inhibition at 3000 µg/mL in assay [3] and in assay [4] was 0 mm in each case. The IC50 in the assay on HCT-8 cells (setting [7]) came out at 200 nM.

With `O=C1OCCN1CCNc1ccc2c3c(nn2CCNCCO)-c2ccccc2Sc13` [CH2CH2NHCH0H2OH /], the zone of inhibition at 1000 µg/mL in assay [2] (1 mg/ml) amounted to 14 mm; in the assay with Bacillus subtilis 04555, 16 mm; in assay [4], 17 mm. For the same compound, the zone of inhibition at 3000 µg/mL in assay [3] amounted to 0 mm; in the assay with Escherichia coli 04863 it was 15 mm. Moreover, the results for the IC50 in the assay with HCT-8 cells (setting [7]) and in the assay on L1210 cells (setting [8]) were 1400 nM and 570 nM, respectively.
